Source: PMC2711991 (Cancer research, 2009)
Counter-ions that a name gives are not always drawn.

Experiments:
Assay type in all cases: cell-based
ABCG2 [1] = target: T1, ABCG2 (Homo sapiens, UniProt Q9UNQ0); assay: BLI D-luciferin efflux inhibition in HEK293/ABCG2/fLuc cells
T1 sequence (Q9UNQ0 1-655): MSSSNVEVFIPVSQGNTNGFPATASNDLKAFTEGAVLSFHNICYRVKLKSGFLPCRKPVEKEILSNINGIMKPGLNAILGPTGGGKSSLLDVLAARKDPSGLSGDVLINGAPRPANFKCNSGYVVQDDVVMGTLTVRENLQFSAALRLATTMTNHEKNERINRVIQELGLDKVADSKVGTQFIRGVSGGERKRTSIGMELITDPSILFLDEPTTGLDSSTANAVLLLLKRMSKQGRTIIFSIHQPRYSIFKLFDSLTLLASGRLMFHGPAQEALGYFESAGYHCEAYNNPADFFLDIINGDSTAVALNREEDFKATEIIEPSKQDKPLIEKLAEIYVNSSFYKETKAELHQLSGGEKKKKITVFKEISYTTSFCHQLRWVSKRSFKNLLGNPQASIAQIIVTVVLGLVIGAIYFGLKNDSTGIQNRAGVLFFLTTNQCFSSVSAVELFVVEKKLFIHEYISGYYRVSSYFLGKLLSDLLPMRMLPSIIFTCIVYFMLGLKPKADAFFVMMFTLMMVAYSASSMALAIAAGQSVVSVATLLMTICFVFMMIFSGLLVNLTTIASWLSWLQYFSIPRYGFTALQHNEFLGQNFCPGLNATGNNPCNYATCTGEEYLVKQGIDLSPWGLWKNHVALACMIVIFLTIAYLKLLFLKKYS

ABCG2 [2] = target: T1, ABCG2
ABCG2 [3] = target: T1, ABCG2; assay: BODIPY-prazosin uptake in HEK293/ABCG2 cells at […]

Structure (SMILES)	IC50 (ABCG2 [1])	further results
COc1cc2nc(N3CCN(C(=O)C4COc5ccccc5O4)CC3)nc(N)c2cc1OC (centres unmarked) [doxazosin mesylate]	~8 µM	
CC(C)C(=O)Nc1ccc([N+](=O)[O-])c(C(F)(F)F)c1 [flutamide]		BODIPY-prazosin uptake in HEK293/ABCG2 cells at 20 μM; BLI 6.1-fold enhancement; (ABCG2 [2]): flutamide|Y|Y
C=C(C)[C@H]1Cc2c(ccc3c2O[C@@H]2COc4cc(OC)c(OC)cc4[C@@H]2C3=O)O1 [rotenone]		BODIPY-prazosin uptake in HEK293/ABCG2 cells at 20 μM; BLI 6.7-fold enhancement; (ABCG2 [3]): rotenone|Y|Y

The next lines start with results.

IC50 (ABCG2 [1])	Structure (SMILES)	further results
~8.2 µM	COc1cc(N)c(Cl)cc1C(=O)NC1CCN(Cc2ccccc2)CC1 [clebopride maleate]	
~20 µM	Cc1c(-c2ccccc2)oc2c(C(=O)OCCN3CCCCC3)cccc2c1=O [flavoxate hydrochloride]	
